Legend:
[1] = test system: HL-60; assay: Induction of TNFalpha release from human HL-60 cells after 24 hrs by ELISA; assay type: functional
[2] = species: Mus musculus; assay: Carcinogenesis in CD1 mouse skin assessed as tumor incidence at 400 nmol twice a week for 20 weeks; assay type: functional
[3] = Displacement of [3H]PDBu from partially purified rabbit brain PKC; set-up: species or system Oryctolagus cuniculus
[4] = test system: HL-60; assay: Induction of human HL-60 cell adhesion after 48 hrs; assay type: functional
[5] = species: Oryctolagus cuniculus; assay: Activation of rabbit brain PKC assessed as [32P] incorporation in histone 3-S from [gamma32P]ATP
[6] = species: Mus musculus; assay: Carcinogenesis in CD1 mouse skin assessed as tumor incidence at 4 nmol twice a week for 20 weeks; assay type: functional

Question: With `C=C(/C=C/C=C(/CO)[C@@H]1CC[C@]2([C@H](CCCO)/C(=C(/C)C=O)CC[C@]2(C)O)[C@H]1O)CCC=C(C)C` as the compound, how does the ED100 [1] read?
Answer: Its ED100 is 3000 nM.

Question: What about the Activity [2] of the same compound?
Answer: The Activity was 64.3%.

Question: And the IC50 [3]?
Answer: The IC50 was 200 nM.

Question: What about the Activity [4] of the same compound?
Answer: The Activity was 500 nM.

Question: What about the ED50 [5] of the same compound?
Answer: Its ED50 is 300 nM.

Question: Which ED100 [1] does the source give for `CCCCCCCCCCCCCC(=O)O[C@@H]1[C@@H](C)[C@@]2(O)[C@@H](C=C(CO)C[C@]3(O)C(=O)C(C)=C[C@@H]23)[C@@H]2C(C)(C)[C@]12OC(C)=O` [PHORBOL MYRISTATE ACETATE] here?
Answer: Its ED100 is 6 nM.

Question: What about the Activity [6] of the same compound?
Answer: The Activity was 93.3%.

Question: What about the IC50 [3] of the same compound?
Answer: Its IC50 is 15 nM.

Question: And the Activity [4]?
Answer: Its Activity is 3 nM.

Question: What about the ED50 [5] of the same compound?
Answer: The ED50 was 15 nM.

From ChEMBL document CHEMBL1158017, “28-deacetylbelamcandal, a tumor-promoting triterpenoid from Iris tectorum” (J Nat Prod, 1999)
